# Data as given in PubChem BioAssay AID330 (DTP/NCI, 2004).
# Where “and” joins values, the source holds several entries; their conditions need not be identical. Equal entries are not always repeated. Inconclusive results and toxic doses are left out.
# System: P388 leukemia ip, CD2F1 mice, survival T/C
# Experiment: NCI In Vivo Anticancer Drug Screen. Data for tumor model P388 Leukemia (intraperitoneal) in CD2F1 (CDF1) mice
# Settings: endpoint: median survival time, higher = longer survival
# In short: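 Mice carrying the transplanted tumor received test compound or vehicle. Survival was recorded in each group, and the value is the treated-group measurement divided by that of the vehicle-treated control group.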
# [1] = dose: 100.0 mg/kg/injection, schedule: Q01DX001 (ip), vehicle: Klucel (hydroxypropylcellulose) (HPC)
# [2] = dose: 200.0 mg/kg/injection, schedule: Q01DX001 (ip), vehicle: Klucel (hydroxypropylcellulose) (HPC)
# [3] = dose: 400.0 mg/kg/injection, schedule: Q01DX001 (ip), vehicle: Klucel (hydroxypropylcellulose) (HPC)
# [4] = dose: 50.0 mg/kg/injection, schedule: Q01DX009 (ip), vehicle: saline
# [5] = dose: 100.0 mg/kg/injection, schedule: Q01DX009 (ip), vehicle: saline
# [6] = dose: 200.0 mg/kg/injection, schedule: Q01DX009 (ip), vehicle: saline
# [7] = dose: 50.0 mg/kg/injection, schedule: Q01DX005 (ip), vehicle: saline with Tween-80
# [8] = dose: 100.0 mg/kg/injection, schedule: Q01DX005 (ip), vehicle: saline with Tween-80
# [9] = dose: 200.0 mg/kg/injection, schedule: Q01DX005 (ip), vehicle: saline with Tween-80
# [10] = dose: 60.0 mg/kg/injection, schedule: Q01DX005 (ip), vehicle: saline
# [11] = dose: 120.0 mg/kg/injection, schedule: Q01DX005 (ip), vehicle: saline
# [12] = dose: 240.0 mg/kg/injection, schedule: Q01DX005 (ip), vehicle: saline
# [13] = dose: 100.0 mg/kg/injection, schedule: Q01DX009 (ip), vehicle: Klucel (hydroxypropylcellulose) (HPC)
# [14] = dose: 200.0 mg/kg/injection, schedule: Q01DX009 (ip), vehicle: Klucel (hydroxypropylcellulose) (HPC)
# [15] = dose: 60.0 mg/kg/injection, schedule: Q01DX005 (ip), vehicle: saline with Tween-80
# [16] = dose: 120.0 mg/kg/injection, schedule: Q01DX005 (ip), vehicle: saline with Tween-80
# [17] = dose: 240.0 mg/kg/injection, schedule: Q01DX005 (ip), vehicle: saline with Tween-80
# [18] = dose: 50.0 mg/kg/injection, schedule: Q01DX009 (ip), vehicle: Klucel (hydroxypropylcellulose) (HPC)
# [19] = dose: 100.0 mg/kg/injection, schedule: Q04DX003 (ip), vehicle: saline
# [20] = dose: 200.0 mg/kg/injection, schedule: Q04DX003 (ip), vehicle: saline
# [21] = dose: 400.0 mg/kg/injection, schedule: Q04DX003 (ip), vehicle: saline
# [22] = dose: 50.0 mg/kg/injection, schedule: Q01DX005 (ip), vehicle: Klucel (hydroxypropylcellulose) (HPC)
# [23] = dose: 100.0 mg/kg/injection, schedule: Q01DX005 (ip), vehicle: Klucel (hydroxypropylcellulose) (HPC)
# [24] = dose: 200.0 mg/kg/injection, schedule: Q01DX005 (ip), vehicle: Klucel (hydroxypropylcellulose) (HPC)
smiles,measurement,setting,value
CN1CCN(C(=S)C(O)(c2ccccc2)c2ccccc2)CC1,T/C,[1],105 % of control
same,T/C,[2],105 % of control
same,T/C,[3],100 % of control
O=C(Nc1ccc(Br)cc1)ON1CCCCC1,T/C,[4],91 % of control
same,T/C,[5],87 % of control
same,T/C,[6],104 % of control
Nc1nc(N)c2ncn(-c3ccc(Cl)c(Cl)c3)c2n1,T/C,[7],101 % of control
same,T/C,[8],97 % of control
same,T/C,[9],106 % of control
COCC1=C(C)CC(CC(=O)OC)C1=O (stereo not drawn),T/C,[10],98 % of control
same,T/C,[11],98 % of control
same,T/C,[12],101 % of control
O=C(O)c1cocc1C(=O)O,T/C,[10],99 % of control
same,T/C,[11],86 % of control
CCCC1CCCC[N+]1(C)[B-](F)(F)F (stereo not drawn),T/C,"dose: 3.12 mg/kg/injection, schedule: Q01DX005 (ip), vehicle: saline",100 % of control
same,T/C,"dose: 6.25 mg/kg/injection, schedule: Q01DX005 (ip), vehicle: saline",99 % of control
same,T/C,"dose: 12.5 mg/kg/injection, schedule: Q01DX005 (ip), vehicle: saline",103 % of control
same,T/C,"dose: 25.0 mg/kg/injection, schedule: Q01DX005 (ip), vehicle: saline",100 % of control and 102 % of control
CCc1ccc(NC(=O)/C=C\C(=O)O)cc1,T/C,[7],98 % of control
same,T/C,[8],95 % of control
same,T/C,[9],90 % of control
C=CC(=O)NCC(=O)O,T/C,[4],100 % of control
same,T/C,[5],103 % of control
same,T/C,[6],109 % of control
O=[n+]1c2ccccc2n([O-])c2cn(-c3ccccc3)c(-c3ccccc3)c21,T/C,[7],100 % of control
same,T/C,[8],100 % of control
same,T/C,[9],101 % of control
Cc1ccc(NCc2ccccn2)nc1,T/C,[7],99 % of control
same,T/C,[8],89 % of control
CCOC1CSc2ccccc2C(c2ccccc2)=N1 (stereo not drawn),T/C,"dose: 50.0 mg/kg/injection, schedule: Q01DX005 (ip), vehicle: Klucel + Tween-80",107 % of control
same,T/C,"dose: 100.0 mg/kg/injection, schedule: Q01DX005 (ip), vehicle: Klucel + Tween-80",93 % of control
same,T/C,"dose: 200.0 mg/kg/injection, schedule: Q01DX005 (ip), vehicle: Klucel + Tween-80",89 % of control
CC(=O)C(C(C)=O)=[Se](c1ccccc1)c1ccccc1,T/C,"dose: 100.0 mg/kg/injection, schedule: Q04DX002 (ip), vehicle: saline",99 % of control
same,T/C,"dose: 200.0 mg/kg/injection, schedule: Q04DX002 (ip), vehicle: saline",100 % of control
same,T/C,"dose: 400.0 mg/kg/injection, schedule: Q04DX002 (ip), vehicle: saline",99 % of control
Cc1c(O)c(O)c2c(c1O)N=C(Cl)/C2=C\N=NC(N)=S,T/C,[1],99 % of control
same,T/C,[2],95 % of control
same,T/C,[3],106 % of control
COc1ccc2ccccc2c1C1=CC(c2ccccc2)C(C(=O)Cc2ccccc2)C(=O)N1 (stereo not drawn),T/C,"dose: 100.0 mg/kg/injection, schedule: Q04DX003 (ip), vehicle: saline with Tween-80",101 % of control
same,T/C,"dose: 200.0 mg/kg/injection, schedule: Q04DX003 (ip), vehicle: saline with Tween-80",92 % of control
same,T/C,"dose: 400.0 mg/kg/injection, schedule: Q04DX003 (ip), vehicle: saline with Tween-80",101 % of control
CC(C)C(NC(=O)CCl)C(=O)O (stereo not drawn),T/C,[13],98 % of control
same,T/C,[14],109 % of control
CC(=O)Cn1ccccc1=O,T/C,[10],99 % of control
same,T/C,[11],94 % of control
same,T/C,[12],99 % of control
CSc1nc(N)c(NS(=O)(=O)c2ccc(NC(C)=O)cc2)c(=O)[nH]1,T/C,[15],93 % of control
same,T/C,[16],91 % of control
same,T/C,[17],96 % of control
C=CC(C)(C)c1c(OC)cc(-c2ccccc2)oc1=O,T/C,"dose: 8.0 mg/kg/injection, schedule: Q01DX005 (ip), vehicle: Klucel + Tween-80",103 % of control
same,T/C,"dose: 16.0 mg/kg/injection, schedule: Q01DX005 (ip), vehicle: Klucel + Tween-80",103 % of control
same,T/C,"dose: 32.0 mg/kg/injection, schedule: Q01DX005 (ip), vehicle: Klucel + Tween-80",109 % of control
same,T/C,"dose: 64.0 mg/kg/injection, schedule: Q01DX005 (ip), vehicle: Klucel + Tween-80",107 % of control
CC/C(=C\c1ccccc1)[N+](=O)[O-],T/C,"dose: 12.5 mg/kg/injection, schedule: Q01DX009 (ip), vehicle: saline with Tween-80",103 % of control
same,T/C,"dose: 25.0 mg/kg/injection, schedule: Q01DX009 (ip), vehicle: saline with Tween-80",123 % of control
COc1cc2c(cc1OC)C(Cc1ccccc1NC(=O)c1ccc(C(=O)Nc3ccccc3CC3c4cc(OC)c(OC)cc4CCN3C)cc1)N(C)CC2 (stereo not drawn),T/C,[15],89 % of control
same,T/C,[16],88 % of control
same,T/C,[17],94 % of control
CCOC(=O)Nc1ccc(C2SCCN2C(=O)Nc2ccc(Cl)cc2)cc1 (stereo not drawn),T/C,[15],100 % of control
same,T/C,[16],91 % of control
same,T/C,[17],91 % of control
CCCC1OC1(CC)COC(=O)NC (stereo not drawn),T/C,[7],100 % of control
same,T/C,[8],101 % of control
same,T/C,[9],117 % of control
CCCC[N+]1(C)CCC(OC(=O)C(O)(c2ccccc2)C2CCCC2)C1 (stereo not drawn),T/C,"dose: 12.5 mg/kg/injection, schedule: Q01DX009 (ip), vehicle: Klucel (hydroxypropylcellulose) (HPC)",95 % of control
same,T/C,"dose: 25.0 mg/kg/injection, schedule: Q01DX009 (ip), vehicle: Klucel (hydroxypropylcellulose) (HPC)",90 % of control
same,T/C,[18],98 % of control and 89 % of control
N#CC(C#N)=Cc1cc2c3c(c1)CCCN3CCC2,T/C,"dose: 100.0 mg/kg/injection, schedule: Q01DX001 (ip), vehicle: saline with Tween-80",100 % of control
same,T/C,"dose: 200.0 mg/kg/injection, schedule: Q01DX001 (ip), vehicle: saline with Tween-80",100 % of control
same,T/C,"dose: 400.0 mg/kg/injection, schedule: Q01DX001 (ip), vehicle: saline with Tween-80",90 % of control
N/C(=N\O)c1cn(C2OC(CO)C(O)C2O)c2ncnc(N)c12 (stereo not drawn),T/C,"dose: 2.5 mg/kg/injection, schedule: Q01DX009 (ip), vehicle: saline sonified",154 % of control
same,T/C,"dose: 5.0 mg/kg/injection, schedule: Q01DX009 (ip), vehicle: saline sonified",159 % of control
COc1ccc(/C=N/NC(=O)/C(C#N)=C/c2ccc(OC)cc2)cc1,T/C,[19],110 % of control
same,T/C,[20],105 % of control
same,T/C,[21],95 % of control
Clc1cccc2nc(-c3ccccn3)n(CCc3ccncc3)c12,T/C,"dose: 25.0 mg/kg/injection, schedule: Q01DX005 (ip), vehicle: Klucel (hydroxypropylcellulose) (HPC)",95 % of control
same,T/C,[22],95 % of control
same,T/C,[23],95 % of control
same,T/C,[24],93 % of control
Nc1nc(N)c(C(=O)SCc2ccccc2)nc1Cl,T/C,[18],107 % of control
same,T/C,[13],95 % of control
same,T/C,[14],91 % of control
O=C1Nc2cnc(Cl)nc2Nc2ccccc21,T/C,[22],99 % of control
same,T/C,[23],91 % of control
same,T/C,[24],101 % of control
CCOC(=O)c1cn2ccccc2c(C(=O)c2cccnc2)c1=N,T/C,[19],91 % of control
same,T/C,[20],96 % of control
same,T/C,[21],96 % of control
